Test results published in patent US20080026417A1, “ASSAYS FOR TRICHOMONAL AND OTHER HYDROLASES” (priority 2002, published 2008).
“And” between values parts separate entries of the source, which are not always exact repeats. Identical values can stand only once.

Legend:
[1] = system: non-trichomonal hydrolases present in normal vaginal fluid supernatants; experiment: Experiment 6 part 1: inhibition of non-trichomonal hydrolases in filtered normal vaginal fluid; type: biochemical, human; design: key: 0: Yellow; 1: Peach; 2: Orange; 3: Light to medium pink; 4: Dark pink or red; 5: Fuchsia; 6: Purple; settings: uninfected, ZRR-MNA, 20 μg/mL antipain or 1 mM chymostatin
Procedure: (§1) Substrate/inhibitor combinations were prepared by mixing 4 μL of 100 mM ZRR-MNA, 20 μL of 1M HEPES buffer, 56 μL of deionized water, and 20 μL of either antipain, chymostatin, or deionized water. Filtered vaginal fluid was prepared from each specimen as follows: the swab was placed in a cuvette containing 200 μL of diluent and the swab was rotated in the diluent to thoroughly mix the swab contents into the diluent. The swab was removed, the swab head was broken off into a microfuge tube, and the liquid remaining in the swab head was forced out by centrifugation. The fluid extracted from the swab was combined with the liquid in the cuvette, and the total volume of fluid was filtered using a centrifuge filter unit to remove particulate matter.
(§2) For each specimen, 4 μL of vaginal fluid filtrate was mixed with 4 μL of each of the three substrate/inhibitor combinations in separate microwells; one well contained 20 μg/mL antipain, one contained 1 mM chymostatin, and one had no inhibitor. After ten minutes, 4 μL of color developer solution was added to each well.

trichomonal hydrolases [2] = experiment: Experiment 6 part 2: inhibition of trichomonal hydrolases added to filtered vaginal fluid; type: biochemical, Trichomonas vaginalis; design: key: 0: Yellow; 1: Peach; 2: Orange; 3: Light to medium pink; 4: Dark pink or red; 5: Fuchsia; 6: Purple; settings: ZRR-MNA, 20 μg/mL antipain or 1 mM chymostatin
Procedure: as §1, §2
Trichomonal hydrolases were added to each of the filtered vaginal fluid specimens—10 μL of trichomonal hydrolase preparation added to 90 μL vaginal fluid filtrate—and the above experiment was repeated.

trichomonal hydrolases [3] = experiment: Experiment 13: hydrolysis of peptide substrates by trichomonal hydrolases at low pH, no vaginal fluid; type: biochemical, Trichomonas vaginalis; design: key: −: No red color produced; +: Clearly visible red color produced; ++: Moderately intense red color produced; +++: Very intense red color produced; settings: without vaginal fluid; threonine buffer pH 2.4; 2 mM substrate solution; 10 min 25° C.; Fast Garnet
Outline: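 Peptide substrates incubated in duplicate for 10 min at 25° C. with trichomonal hydrolase diluted 1:9 in 2 mM L-cysteine; negative controls received L-cysteine alone. SDS/acetate and Fast Garnet added, and color visually scored after 5 min on a color scale.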

trichomonal hydrolases [4] = experiment: Experiment 13: hydrolysis of peptide substrates by trichomonal hydrolases at low pH in vaginal fluid supernatant; type: biochemical, Trichomonas vaginalis; design: key: −: No red color produced; +: Clearly visible red color produced; ++: Moderately intense red color produced; +++: Very intense red color produced; settings: Fast Garnet
Procedure: Forty μL of each substrate was pipetted into duplicate wells of a microtiter plate. The plate was covered with tape, placed into a 25° C. incubator, and allowed to warm. A diluted enzyme mixture was prepared by mixing one part (v/v) freshly-thawed trichomonal hydrolase solution to nine parts 2 mM L-cysteine solution. Forty μL of this mixture was added to one well of each pair of duplicate wells. For negative controls, 40 μL of 2 mM L-cysteine was added to the second well in each pair of duplicate wells. The plate was returned to the incubator and incubated for ten minutes. Forty μL of SDS/acetate solution was added to each well, followed by 40 μL of Fast Garnet solution. The intensity of color that developed in each well after five minutes was visually scored using the color scale presented in Table 13.1.
Of the nine substrates hydrolyzed by trichomonal hydrolases to produce an intense pink color (scoring ++ or +++) in the absence of vaginal fluid supernatant, only four produced intense pink color when vaginal fluid supernatant was present.

[5] = system: endogenous hydrolases present in normal vaginal fluid; experiment: Experiment 14: substrate comparison on swabs with normal vaginal fluid at low pH; type: biochemical, human; design: key: 0: Colorless or yellow - no pink color; trace: Peach or orange; 1: Faint pink; 2-8: Intermediate intensities of pink; 8: Very intense pink/red; settings: Normal (n = 3); 150 mM substrate film solution; threonine pH 2.4; Fast Red; 0-9 scale
Procedure: Mixtures were made of the 400 mM substrate stock solutions, 25% hydroxy-propylcellulose solution, 200 mM L-cysteine, along with additional ethanol to a final concentration of 150-320 mM substrate, 20 mM L-cysteine, and 2-5% hydroxypropyl-cellulose. Substrate films were made by pipetting 1 μL of a mixture over a circular area approximately […] in diameter on a sheet of Mylar, and drying under a stream of dry nitrogen. The dried films were stored in a container with desiccant until used.
For each pair of vaginal fluid specimens from a donor, one swab was rubbed on one substrate film and the other swab was rubbed on a different substrate film; two substrates were compared at a time. The concentrations of the substrates varied from 150 mM to 320 mM in the solutions used to make the substrate films, but each specific comparison matched equimolar concentrations of substrates (as specified in Tables 14.1, 14.2, and 14.3 below). […] The intensity of pink color that developed on each swab after two minutes was visually scored using the 0-9 color scale presented in Table 11.1 above; fractional scores such as 1.3 were used when color intensities between swabs differed only slightly.

trichomonal hydrolases [6] = experiment: Experiment 14: substrate comparison on swabs with vaginal fluid plus trichomonal hydrolases at low pH; type: biochemical, Trichomonas vaginalis; settings: threonine pH 2.4, 0-9 scale
Procedure: For each pair of vaginal fluid specimens from a donor, one swab was rubbed on one substrate film and the other swab was rubbed on a different substrate film; two substrates were compared at a time. The concentrations of the substrates varied from 150 mM to 320 mM in the solutions used to make the substrate films, but each specific comparison matched equimolar concentrations of substrates (as specified in Tables 14.1, 14.2, and 14.3 below). In the swabs, the substrate was diluted by vaginal fluid and buffer, and the final concentration of substrate in the swab tip was estimated to be 1/60 of the concentration of substrate in the solutions used to make the films. Immediately after each swab was rubbed on a substrate film, a 35-μL drop of threonine buffer was applied to the plastic where the substrate film had been, and the swab was rubbed on the same spot again until the buffer was absorbed into the swab. The swabs were left lying on the plastic for ten minutes, then each swab was rubbed on a Fast Red or Fast Garnet film. For the comparisons between ZLR and ZVR, and between VLR-MNA and ZRRR-MNA, films made with 10 mM Fast Garnet were used; for the comparison between ZVR and VLR-MNA, films made with 70 mM Fast Red were used. The intensity of pink color that developed on each swab after two minutes was visually scored using the 0-9 color scale presented in Table 11.1 above; fractional scores such as 1.3 were used when color intensities between swabs differed only slightly. In this part of the experiment, 20 μL of trichomonal hydrolases was applied to the tip of each swab containing vaginal fluid just prior to running the assay. Otherwise, the procedure was exactly the same as for the swabs containing only vaginal fluid.

trichomonal hydrolases [7] = experiment: Experiment 17: effect of amount of VLR-MNA on color produced by trichomonal hydrolases on swabs; type: biochemical, Trichomonas vaginalis; settings: 0-9 scale
Procedure: Solution A, containing 10% v/v trichomonal hydrolases and 2 mM L-cysteine, was prepared by mixing 20 μL of trichomonal hydrolases with 4 μl of 100 mM L-cysteine and 176 μL of water, and Solution B, containing 20% v/v trichomonal hydrolases, 5% v/v normal vaginal fluid supernatant and 2 mM L-cysteine, was prepared by mixing 40 μL of trichomonal hydrolases with 10 μL of normal vaginal fluid supernatant, 4 μL of 100 mM L-cysteine and […]. Several 35 μL drops each of Solution A, Solution B, and threonine buffer were individually pipetted onto discrete, separated areas on a sheet of Mylar. Individual cotton swabs were rubbed on a drop of either Solution A or Solution B, then on one, two or three dots of substrate, and then on a drop of buffer. After ten minutes, each swab was rubbed on an indicator film. The intensity of pink color that developed on each swab after thirty seconds was visually scored in 0.5 unit increments using the 0-9 color scale presented in Table 11.1.

trichomonal hydrolases [8] = experiment: Experiment 11: hydrolysis of ZRRR-MNA by trichomonal hydrolases at pH 1.9-3.4, read on swab; type: biochemical, Trichomonas vaginalis; settings: Fast Red RL, 0-9 scale
Procedure: The 200 mM ZRRR-MNA solution was mixed with 25% hydroxypropylcellulose solution and additional ethanol to a final concentration of 80 mM ZRRR-MNA and 5% hydroxypropyl-cellulose. Substrate films were made by pipetting 1 μL of a mixture over a circular area approximately ¼-inch in diameter on a sheet of Mylar, and drying under a stream of dry nitrogen. An 80-μL aliquot of a malic acid buffer solution, at each pH listed above, was pipetted into each of eight separate round-bottom wells on a microtiter plate. Eighty μL of 10% trichomonal hydrolase solution was added to each well and mixed thoroughly. Half of the volume in each well (80 μL) was then transferred to a second set of eight wells, into which the swabs were then inserted. After the 80 μL of liquid was absorbed from each well into the respective swab, each swab was rubbed on a substrate film. Ten minutes after the swabs were exposed to substrate, each swab was rubbed on an indicator (Fast Red) film. The intensity of pink color that developed on each swab after one minute was visually scored in 0.5 unit increments using the 0-9 color scale presented in Table 11.1 below. To determine the final pH of the eight mixtures of trichomonal hydrolases and buffer, the pH of the liquid remaining in the first set of eight wells was measured using a pH meter. The experiment was repeated omitting the lowest pH and highest pH wells.

[9] = Hydrolases added (n = 2), 150 mM substrate film solution, Fast Red
[10] = Hydrolases added (n = 5), 200 mM substrate film solution, Fast Garnet

Structure (SMILES): CC(C)C[C@H](NC(=O)[C@@H](NC(=O)N[C@@H](Cc1ccccc1)C(=O)O)[C@@H]1CCN=C(N)N1)C(=O)N[C@H](C=O)Cc1ccccc1 [Chymostatin, chymostatin]
- Hydrolase activity color score with inhibitor ([1]; Donor A): 0
- Hydrolase activity color score with inhibitor ([1]; Donor B): 0
- Hydrolase activity color score with inhibitor ([1]; Donor C): 0
- Hydrolase activity color score with inhibitor ([1]; Donor D): 2
- Hydrolase activity color score with inhibitor ([1]; Donor E): 0
- Hydrolase activity color score with inhibitor ([1]; Donor F): 0
- Hydrolase activity color score with inhibitor (trichomonal hydrolases [2]; Donor A filtrate supplemented with trichomonal hydrolases): 3.5
- Hydrolase activity color score with inhibitor (trichomonal hydrolases [2]; Donor B filtrate supplemented with trichomonal hydrolases): 3.5
- Hydrolase activity color score with inhibitor (trichomonal hydrolases [2]; Donor C filtrate supplemented with trichomonal hydrolases): 3.5
- Hydrolase activity color score with inhibitor (trichomonal hydrolases [2]; Donor D filtrate supplemented with trichomonal hydrolases): 4
- Hydrolase activity color score with inhibitor (trichomonal hydrolases [2]; Donor E filtrate supplemented with trichomonal hydrolases): 3
- Hydrolase activity color score with inhibitor (trichomonal hydrolases [2]; Donor F filtrate supplemented with trichomonal hydrolases): 3

Structure (SMILES): COc1cc(NC(=O)C(CCCN=C(N)N)NC(=O)C(CC(C)C)NC(=O)C(N)C(C)C)cc2ccccc12 [VLR-MNA, D-Val-Leu-Arg-MNA]
- Color Score (trichomonal hydrolases [3]): +++
- Color Score (trichomonal hydrolases [4]): +++
- Color Score [5]: 0
- Color Score (trichomonal hydrolases [6]; [9]): 2 to 2.5
- Color Score (trichomonal hydrolases [6]; [10]): 1 to 4
- Color Score (trichomonal hydrolases [7]; Solution A (10% trichomonal hydrolases, no vaginal fluid), One dot of Substrate): 5.5
- Color Score (trichomonal hydrolases [7]; Solution A, Three dots of Substrate): 9
- Color Score (trichomonal hydrolases [7]; Solution A, Two dots of Substrate): 7
- Color Score (trichomonal hydrolases [7]; Solution B (20% trichomonal hydrolases, 5% normal vaginal fluid supernatant), One dot of Substrate): 2.5
- Color Score (trichomonal hydrolases [7]; Solution B, Three dots of Substrate): 5.5
- Color Score (trichomonal hydrolases [7]; Solution B, Two dots of Substrate): 4

Structure (SMILES): CC(=O)O.COc1cc(NC(=O)[C@H](CCCN=C(N)N)NC(=O)[C@H](CCCN=C(N)N)NC(=O)[C@H](CCCN=C(N)N)NC(=O)OCc2ccccc2)cc2ccccc12 [ZRRR-MNA, CBZ-Arg-Arg-Arg-MNA]
- Color Scores (trichomonal hydrolases [8]; malic acid pH 1.3 / final pH in wells 1.9): 2
- Color Scores (trichomonal hydrolases [8]; malic acid pH 1.6 / final pH 2.1, 1st experiment and duplicate): 4.5
- Color Scores (trichomonal hydrolases [8]; malic acid pH 1.9 / final pH 2.3, 1st experiment and duplicate): 5
- Color Scores (trichomonal hydrolases [8]; malic acid pH 2.2 / final pH 2.4, 1st experiment and duplicate): 5.5 and 6
- Color Scores (trichomonal hydrolases [8]; malic acid pH 2.5 / final pH 2.6, 1st experiment and duplicate): 5.5 and 5
- Color Scores (trichomonal hydrolases [8]; malic acid pH 2.8 / final pH 2.9, 1st experiment and duplicate): 5 and 3.5
- Color Scores (trichomonal hydrolases [8]; malic acid pH 3.1 / final pH 3.2, 1st experiment and duplicate): 4.5 and 3
- Color Scores (trichomonal hydrolases [8]; malic acid pH 3.4 / final pH 3.4): 3
- Color Score (trichomonal hydrolases [3]): +++
- Color Score (trichomonal hydrolases [4]): ++
- Color Score (trichomonal hydrolases [6]; [10]): 1 to 4

Structure (SMILES): COc1cc(NC(=O)[C@H](CCCNC(=N)N)NC(=O)[C@@H](NC(=O)OCc2ccccc2)C(C)C)cc2ccccc12 [ZVR, CBZ-Val-Arg-MNA]
- Color Score (trichomonal hydrolases [3]): +++
- Color Score (trichomonal hydrolases [4]): ++
- Color Score [5]: 2.5 to 3
- Color Score (trichomonal hydrolases [6]; [9]): 4.5 to 5
- Color Score (trichomonal hydrolases [6]; Hydrolases added (n = 4), 320 mM substrate film solution, Fast Garnet): 1 to 5
